Values of other authors, collected in patent US20030194372A1, “Radioimaging probes and the use thereof” (priority 2000, published 2003).

System: atheroma
Conditions: literature reports

CCC(Cc1c(I)cc(I)c(N)c1I)C(=O)O[C@H]1CC[C@@]2(C)C(=CC[C@H]3[C@@H]4CC[C@H]([C@H](C)CCCC(C)C)[C@@]4(C)CC[C@@H]32)C1 (stereo partly shown) [CI, cholesteryl iopanoate]
Accumulation in atheroma / atherosclerotic lesions: accumulated preferentially in atheroma relative to normal arterial tissue
